Converted amounts (≈) assume the structure as drawn.
Legend:
SiHa cells = assay: MTT antiproliferative assay, SiHa; assay type: cell-based, human; details: Homo sapiens, SiHa, 72 h, values <20% considered negligible, read-out: Growth inhibition (%) ± SEM, SiHa
Procedure: (§1) The in vitro antiproliferative activities of the synthesised aminotriols 5–18 against a panel of different human cancer cell lines of gynecological origin, including cervical (SiHA and HeLa), breast (MCF7 and MDA-MB-231), ovary (A2780) cancers and NIH/3T3 healthy fibroblasts, were assayed by the MTT method. Cisplatin, a clinically applied anticancer agent was used as a reference compound, and the results are summarised in Figure 3 and Table S1 in the Supplementary Materials.
(§2) The growth-inhibitory effects of the presented terpenes were determined by a standard MTT [3-(4,5-dimethylthiazol2-yl)-2,5-diphenyltetrazolium bromide] assay against […] human cancer cell lines (cervical cancer HeLa and SiHa cell lines, breast cancer MCF-7 and MDA-MB-231 and ovarian cancer A2780). Murine embryonal fibroblast cells (NIH/3T3) were used to determine selectivity. All cell lines were purchased from the European Collection of Cell Cultures (Salisbury, UK). The cells were cultivated in Eagle’s minimal essential medium supplemented with 10% fetal bovine serum, 1% non-essential amino acids, and 1% Antibiotic-Antimycotic complex (penicillin, streptomycin, amphotericin B) at 37 °C in a humidified atmosphere containing 5% CO2. All media and supplements were purchased from Lonza Group Ltd. (Basel, Switzerland). Cancer cells were seeded into 96-well plates (5000 cells/well) after an overnight incubation, and the test compounds were added at two different concentrations (10 μM and 30 μM) and incubated for another 72 h under cell-culturing conditions. Finally, 20 μL of a 5 mg/mL MTT solution was added to each well, and the contents were incubated for a further 4 h. The medium was removed, and the precipitated formazan crystals were dissolved in DMSO by shaking at 37 °C for 60 min. The absorbance was measured at 545 nm by using a microplate reader (SPECTROStar Nano, BMG Labtech, Offenburg, Germany). Clinically utilised anticancer agent cisplatin (Ebewe GmbH, Unterach, Austria) was included as a reference molecule. Calculations were performed using the GraphPad Prism 9 software (GraphPad Software Inc., San Diego, CA, USA).

HeLa cells = assay: MTT antiproliferative assay, HeLa; assay type: cell-based, human; details: for inhibition at 10 µM / inhibition at 30 µM: Homo sapiens, HeLa, 72 h, values <20% considered negligible, read-out: Growth inhibition (%) ± SEM, HeLa
Procedure: as §1, §2

NIH/3T3 fibroblasts = assay: MTT assay on fibroblasts (selectivity); assay type: cell-based, murine; details: Mus musculus, 72 h, values <20% considered negligible, read-out: Growth inhibition (%) ± SEM, NIH/3T3; for inhibition at 10 µM: NIH3T3, 10 μM; for inhibition at 30 µM: NIH3T3, 30 μM
Procedure: as §1, §2

[1] = system: human cancer cell lines (HeLa, SiHa, A2780, MCF-7 and MDA-MB-231); assay: MTT antiproliferative assay, whole cancer cell panel; assay type: cell-based; details: 10 and 30 μM
Procedure: as §1, §2

A2780 cells = assay: MTT antiproliferative assay, A2780; assay type: cell-based, human; details: Homo sapiens, 72 h, values <20% considered negligible, read-out: Growth inhibition (%) ± SEM, A2780; for inhibition at 10 µM: A2780, 10 μM; for inhibition at 30 µM: A2780, 30 μM
Procedure: as §1, §2

MCF-7 cells = assay: MTT antiproliferative assay, MCF-7; assay type: cell-based, human; details: Homo sapiens, 72 h, values <20% considered negligible, read-out: Growth inhibition (%) ± SEM, MCF-7; for inhibition at 10 µM: MCF7, 10 μM; for inhibition at 30 µM: MCF7, 30 μM
Procedure: as §1, §2

MDA-MB-231 cells = assay: MTT antiproliferative assay, MDA-MB-231; assay type: cell-based, human; details: Homo sapiens, 72 h, values <20% considered negligible, read-out: Growth inhibition (%) ± SEM, MDA-MB-231; for inhibition at 10 µM: MDA-MB-231, 10 μM; for inhibition at 30 µM: MDA-MB-231, 30 μM
Procedure: as §1, §2

[2] = Kinetic aqueous solubility; assay type: physicochemical; details: phosphate buffered saline with 5% DMSO, aqueous with cosolvent or surfactant or cyclodextrin, kinetic from dmso stock; after 2 h, at 37 °C in PBS, pH 7.4, 5% DMSO; target concentration 500 μM; mean ± S.E.M, n = 3
Procedure: (§3) Filtrates and calibration solutions (5–500 μ M) of the kinetic solubility study and starting donor and acceptor solutions of the PAMPA-GI study were investigated by HPLC-DAD-MS. LC-MS analysis was performed using a Waters 2795 HPLC with a Waters 2487 DAD detector coupled with a Micromass Quattro Ultima TMPt quadrupol mass spectrometer equipped with an ESI source. Measurements were performed on a Waters XSelect C18 (150 × 4.6 mm; 3.5 μm) column with a […] eluent flow rate and the temperature set at 40 °C. The composition of eluent A was MilliQ water with 0.1% formic acid, and that of eluent B was an acetonitrile and MilliQ water mixture (95:5, v/v), also with 0.1% formic acid. The following linear gradient program was used: 0–6 min, 10–100% B; this was held for 3 min, then from 9.01 min on, back to the starting composition of 10% B–90% A. The injection volume was 10 μL for each sample. Chromatographic profiles were registered at dual wavelength, 220 and 240 nm. The mass spectrometer was used in negative ion mode for samples 2, 3 and 4b, and in positive ion mode for other samples. The operating parameters of the MS were: Mass range of m/z 150–700. Nitrogen gas flow rate was 350 L/h, temperature of 350 °C and pressure of 6 bar. The quadrupol temperature was 120 °C, and the capillary voltage was 2.5 kV. Fragmentor’s voltage of 60 V.
(§4) Intestinal (GI) permeability was determined by using an intestinal-specific parallel artificial membrane permeability assay (PAMPA-GI [36]]). […] All solutions were filtered by MultiScreen HTS Vacuum Manifold (Merck Ltd., Budapest, Hungary) after the incubation period. The target concentration was 500 μM for every sample investigated. The intestinal-specific effective permeability of the samples was determined by PAMPA-GI. To prepare starting solutions for a 96-well donor plate, 15 μLs of the 10 mM DMSO stock solution of investigation compounds and 285 μL pH 6.5 phosphate buffer solution were mixed. These solutions were left in a shaking incubator (300 rpm) at 25 °C for 1 h. Meanwhile, a 96-well acceptor plate was filled with 300 μL of pH 7.4 PBS buffer solution containing 5% DMSO. The intestinal-specific artificial membrane was prepared the following way: the hydrophobic filter material of the donor plate was coated with a mixture of phosphatidylcholine/cholesterol = 2:1 (5 μL, 4 % (w/v) in dodecane). After that, all donor wells were filled with 150 μL of the starting donor solutions, and they were carefully placed on the acceptor plate and incubated at 37 °C for 4 h. After the end of the incubation period the donor and acceptor plates were separated carefully. A total of 150 μL of the donor, acceptor and the starting donor solutions were sampled and analysed with HPLC-DAD-MS. The effective permeability and membrane retention of drugs were calculated using the following equations: Pe=−2.303/A·(t−τss)·1/1+rv·lg[−rv+(1+rv/1−MR)·]CD(t)/CD(0) MR=1−CD(t)/CD(0)−VA·CA(t)/VD·CD(0) where Pe is the effective permeability coefficient (cm/s), A is the filter area (0.3 cm^2), VD and VA are the volumes in the donor (0.15 cm^3) and acceptor phase (0.3 cm^3), t is the incubation time (s), τSS is the time to reach steady-state (s), CD(t) is the concentration of the compound in the donor phase at time point t (mol/cm^3), CD(0) is the concentration of the compound in the donor phase at time point zero (mol/cm^3), rv is the aqueous compartment volume ratio (VD/VA), MR is the membrane retention factor.

[3] = Intestinal-specific parallel artificial membrane permeability assay (PAMPA-GI); assay type: in vitro ADME; details: gradient pH system (pH donor 6.5 → pH acceptor 7.4) after 4 h, at 37 °C, mean ± S.E.M, n = 3
Procedure: as §3, §4

| Compound | inhibition at 10 µM (SiHa cells) [%] | inhibition at 30 µM (SiHa cells) [%] | Antiproliferative effect on HeLa, in words (HeLa cells; 10 and 30 μM) | inhibition at 10 µM (HeLa cells) [%] | inhibition at 30 µM (HeLa cells) [%] | melting point [°C] | inhibition at 10 µM (NIH/3T3 fibroblasts) [%] | inhibition at 30 µM (NIH/3T3 fibroblasts) [%] | Antiproliferative activity on the cancer cell panel, in words [1] | inhibition at 10 µM (A2780 cells) [%] | inhibition at 30 µM (A2780 cells) [%] | inhibition at 10 µM (MCF-7 cells) [%] | inhibition at 30 µM (MCF-7 cells) [%] | inhibition at 10 µM (MDA-MB-231 cells) [%] | inhibition at 30 µM (MDA-MB-231 cells) [%] | solubility kinetic at 2 h [2] [µM] | Papp at 4 h, 500 µM ([3]; PAMPA, read-out: PAMPA-GI Pe) [×10⁻⁶ cm/s] | PAMPA-GI MR (membrane retention) [3] [%] |
| --- | --- | --- | --- | --- | --- | --- | --- | --- | --- | --- | --- | --- | --- | --- | --- | --- | --- | --- |
| COC(=O)[C@]1(C)CCC[C@@]2(C)C3CC[C@]4(O)C[C@@]3(CCC21)[C@@H](O)[C@]41CO1 (stereo partly drawn) [Compound 4b, (2’R,4R,6aR,7R,9S,11bS)-Methyl 7,9-Dihydroxy-4,11b-dimethyldodecahydro-1H-spiro[6a,9-methanocyclohepta[a]naphthalene-8,2’-oxirane]-4-carboxylate] | < 20 | 58 ± 2.66 | potent inhibition | 30.6 ± 1.09 | 95.35 ± 0.11 | 182 to 185 | < 20 | 37.2 ± 0.71 | significant activity in higher concentrations only | < 20 | 62 ± 0.78 | < 20 | 53.1 ± 2.2 | < 20 | 36.7 ± 1.62 | – | – | – |
| C=C1[C@H](O)[C@@]23CC[C@H]4[C@@](C)(CCC[C@@]4(C)C(=O)O)[C@@H]2CC[C@]1(O)C3 [Compound 2] | – | – | – | – | – | – | – | – | any notable effect was not detectable | – | – | – | – | – | – | 443 ± 35.7 (≈ 148 µg/mL) | 0.52 ± 0.02 | 6.5 ± 0.7 |
| COC(=O)[C@]1(C)CCC[C@@]2(C)C3CC[C@]4(O)C[C@@]3(CCC21)[C@@H](O)[C@]4(O)CN (stereo partly drawn) [Compound 17, (4R,6aR,7R,8R,9S,11bS)-Methyl 8-(Aminomethyl)-7,8,9-trihydroxy-4,11b-dimethyltetradecahydro-6a,9-methanocyclohepta[a]naphthalene-4-carboxylate] | < 20 | < 20 | – | < 20 | 28.9 ± 2.72 | 152 to 155 | < 20 | < 20 | any notable effect was not detectable | < 20 | < 20 | < 20 | < 20 | < 20 | 30.4 ± 2.04 | 535 ± 38.4 (≈ 204 µg/mL) | – | 1.5 ± 0.3 |
| C=C1[C@H](O)[C@@]23CCC4[C@@](C)(CCC[C@@]4(C)C(=O)OC)C2CC[C@]1(O)C3 (stereo partly drawn) [Compound 3, (4R,6aR,7R,9S,11bS)-Methyl 7,9-Dihydroxy-4,11b-dimethyl-8-methylenetetradecahydro-6a,9-methanocyclohepta[a]naphthalene-4-carboxylate] | < 20 | 30.7 ± 2.71 | – | < 20 | 27.9 ± 2.3 | 253 to 255 | < 20 | < 20 | any notable effect was not detectable | < 20 | < 20 | < 20 | 49.2 ± 2.19 | < 20 | < 20 | – | – | – |
